Results as given in patent USRE39682E1, “Farnesyl derivatives and pharmaceutical compositions containing them” (Ramot at Tel Aviv University Ltd., priority 1993, dated 2007).

Experiments:
[1] = tested on: Ha-ras-transformed rat1 cells; test: Growth of ras-transformed rat1 cells (cell counting); format: cell-based, rat; details: for EC50: Rattus norvegicus, 168 h, day 7 of drug treatment, estimated from dose response curves, read-out: Inhibition of rab-transformed rat1 cell growth EC50; for effects on cell growth of ras-transformed rat1 cells: drug concentrations up to 200 μM
Text: The cell lines employed were rat1, -EJ, which are rat1 cells stably expressing Val- 12 activated human Ha-ras gene (Land H. et al., Nature, 304, 596-602, (1983)); V-raf-3T3, which are 3T3 cells stably expressing the V-raf gene (Xu, N., et al., Proc. Natl. Acad. Sci., 90, 6741-6745); RB-22, which are 3T3 cells stably expressing the rat Erb-B2 gene (Peles, et al., EMBO J., 10, 2077-2086 (1991)) CO6O cells (SV40-CHO), which are CHE cells stably expressing the SV-40 T-antigen gene (Lavi, Proc. Natl. Acad. Sci., 78, 6144-6148 (1981)); human endometrial carcinoma cell line HEC1A, which are cells that express activated K-ras (Enomoto T., Cancer Res., 50, 6139-6145; mouse B16F10 melanoma cells, rat pheochromocytoma PC12 cells, […] cells CHE and COS cells.
HEC1A, V-raf-3T3 and SV40-CHE cells were grown in Dulbecco's modified Eagle medium (DMEM) containing 10% fetal calf serum (FCS), 4 mM L-glutamine, 10 μg/ml streptomycin and 10 U/ml penicillin. Rat1 and -EJ cells were grown in the same medium except that it was supplemented with 12.5 U/ml nyostatin. RB-22 cells were grown in modified DMEM (1 mM sodium pyruvate, 20 mM sodium bicarbonate)/10% FCS containing 4 mM L-glutamine, […] streptomycin, 10 U/ml penicillin. PC-12 cells were grown in DMEM 15% FCS/5% horse serum and the above noted antibiotics.
HEC1A cells were plated in 24 well plates at a density of 5×10^3 cells per well and fed with 1 ml of medium. The cells were grown at 37° C. in a humidified atmosphere of 95%/5% air/CO2. All other cell types employed were plated in 24 well plates at a density of 2×10^3 cells per well and fed with the appropriate medium.
Cultures were treated with farnesyl derivatives or with solvent either 3 hrs following plating or one day after plating as indicated. […] Control cultures received 0.1% DMSO only. Cultures were fed on days 6, 7 and 9 of the experiment with the drugs or with solvent-containing media.
Cells were counted following 3, 7 and 10 days of beginning of treatments with drugs. For counting, cells were detached from plates with trypsin/EDTA, and collected by a low speed spin in the presence of DMEM/10% FCS. The pelleted cells were resuspended in a small volume of DMEM/10% FCS and counted under the microscope. Viability of cells was estimated by staining with (3-(4,5-dimethylthiosol-2-yl)-2,5-diphenyltetrazolium bromide (MTT) and microscopic examination of the stained and unstained cells, or spectrophotometric estimation (OD490, 590) of the total stain in each well. Non viable cells were estimated by the trypan blue exclusion method.
Cells were plated at a density 2×10^3/well and received either solvent or drugs one day later. Following 3, 7, or 10 days of the drugs-treatment as described above, cells were collected and the number of cells in each well was estimated by direct counting. […] The effect was apparent after a delay of at least three days. About 40-60% inhibition of cell growth was induced either by FTA or by FTS observed on days 7 and 10 of the treatment.

[2] = molecular target: T1, prenylated protein methyltransferase (PPMTase) (Rattus norvegicus, UniProt Q9WVM4); test: Methylation of AFC by PPMTase in rat cerebellar synaptosomal membranes; format: biochemical; details: for Ki: Table II, given as range, read-out: Ki
T1 construct: from tissue; host or cells: rat cerebellum, synaptosomal membranes
T1 sequence (Q9WVM4 whole entry): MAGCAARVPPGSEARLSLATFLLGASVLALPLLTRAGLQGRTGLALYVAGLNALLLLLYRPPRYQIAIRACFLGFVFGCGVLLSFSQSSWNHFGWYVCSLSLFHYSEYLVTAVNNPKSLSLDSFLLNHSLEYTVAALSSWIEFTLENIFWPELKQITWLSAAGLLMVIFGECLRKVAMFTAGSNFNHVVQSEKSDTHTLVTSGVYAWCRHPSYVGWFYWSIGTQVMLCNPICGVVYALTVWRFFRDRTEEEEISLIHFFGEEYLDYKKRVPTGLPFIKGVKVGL
Text: As a substrate for methylation served AFC and as the donor of methyl served [methyl-H^3] labelled AdoMet. As a source of the enzyme prenylated protein methyltransferase (PPTMase) served rat cerebellar membranes which are known to be membranes enriched with this enzyme (Ben-Baruch, Biochem. Biophys. Res. Commun., 195, 282-288. (1993)).
Charles River adult male rats were used for preparation of cerebellar synaptosomal membranes. Cerebella were removed after decapitation and homogenized in 0.32M sucrose containing 50 mM Tris-HCl pH 7.4, 3 mM EDTA, 1 mM EGTA, 5 unit/ml aprotinin and 5 μg/ml pepstatin (buffer A) to yield 10% (w/v) homogenates. Nuclear fractions were obtained by 10 min. 600×g centrifugation and synaptosomal fractions were obtained by 20 mins. 14,500×g centrifugation. Membranes of the various cell types used were prepared in the above buffer A by a 60 min. spin at 100,000×g.
Pellets were resuspended in the homogenization buffer and stored at −70° C. Methylation assays were performed at 37° C. in 50 mM Tris-HCl buffer pH 7.4, using 75-125 μg protein, 25 μM [methyl-^3H]AdoMet ([…] in DMSO) in a total volume of 50 μl. DMSO concentration in all assays was 4%.
Reactions were terminated after 10 min. by adding 500 μl chloroform methanol (1:1) and a subsequent addition of 250 μl H2O, mixing them and subsequently by phase separation. A portion of 125 μl of the chloroform phase was dried down at 40° C. and 200 μl of 1M NaOH/1% SDS solution were added thereto. The [^3H]methanol thus formed was counted by the vapor phase equilibrium method as described previously (Hakiai et al., Cell Mol. Neurobiol., 11, 415-431, (1991); Lenner et al., Cell Mol. Neurbiol., 12, 333 and 3351, (1992); Ben-Baruch et al., Biochem. Biophy. Res. Commun., 195, 282-288, (1993)). Typical background counts (i.e. counts of methylation with no AFC added) were 50-100 cpm while typical methylation counts with AFC as a substrate yielded 500 to 6000 cpm. Assays were performed in triplicate and background counts subtracted. Methylation of endogenous substrates, in intact cells, and [α-^32P] GTP-blot overlay assays and gel electrophoreses were performed as detailed previously (Hakiai et al., supra (1991); Lenner et al., supra (1993)).

ras methylation = details: ras-transformed NTH3T3 cells; cited from earlier work
[3] = tested on: ras-transformed NTH3T3 cells; details: cited from earlier work
neutrophils chemotaxis = details: cited from earlier work
platelet aggregation = details: cited from earlier work

Row | serves as substrate for PPMTase methylation [2] | Ki [2] [µM] | [3H-methyl]ester formed ([2]; 100 μM AFC alone as substrate) [cpm/assay] | [3H-methyl]ester formed ([2]; 200 μM of the substance alone as substrate) [cpm/assay] | SMILES | EC50 [1] [µM] | effects on cell growth of ras-transformed rat1 cells [1] | inhibition of ras methylation (ras methylation) | inhibition of cell growth [3] | inhibition of neutrophils chemotaxis (neutrophils chemotaxis) | inhibition of platelet aggregation (platelet aggregation)
1 | do not serve as substrates | 6.6 to 9.5 | – | – | CC(C)=CCC/C(C)=C/CC/C(C)=C/CNc1ccc(Cl)c(C(=O)O)c1 [NFCB, 2-chloro-5-farnesylaminobenzoic acid] | 20 to 40 | effects similar to those observed with FTS and FTA | – | – | – | –
2 | do not serve as substrates | 66.1 to 80.5 | – | – | CC(C)=CCC/C(C)=C/CC/C(C)=C/CSc1ccc(N)cc1C(=O)O [5-amino FTS] | > 200 | not active | – | – | – | –
3 | – | – | 3200 ± 130 | 3700 ± 150 | CC(=O)N[C@@H](CSC/C=C(\C)CC/C=C(\C)CCC=C(C)C)C(=O)O (stereo in doubt) [AFC, N-acetyl-trans-trans-farnesyl-L-cysteine] | – | – | can inhibit ras methylation | does not inhibit their growth | inhibit | inhibit
